# Earlier results as cited in patent publication US9289396B2, “Collagen-based implants for sustained delivery of drugs” (Euclid Systems Corporation, priority 2010, dated 2016).
# Conditions: in phosphate buffer
row,aqueous solubility,Structure (SMILES)
1,about 50 μg/mL,"CC(C)OC(=O)CCC/C=C\C[C@@H]1[C@@H](CC[C@@H](O)CCc2ccccc2)[C@H](O)C[C@@H]1O [latanoprost, 13,14-dihydro-17-phenyl-18,19,20-trinor-prostaglandin F2a-1-isopropyl ester]"

# Conditions: not given
row,Structure (SMILES),Approx. Solubility in water
1,C[C@H]1C[C@H]2[C@@H]3CCC4=CC(=O)C=C[C@]4(C)[C@@]3(F)[C@@H](O)C[C@]2(C)[C@@]1(O)C(=O)CO [betamethasone],0.5 µg/mL
2,CCNC(=O)CCC/C=C\C[C@@H]1[C@@H](/C=C/[C@@H](O)CCc2ccccc2)[C@H](O)C[C@@H]1O [bimatoprost],20 µg/mL
3,CN(CCCCCCCCCCN(C)C(=O)Oc1cccc([N+](C)(C)C)c1)C(=O)Oc1cccc([N+](C)(C)C)c1 [demecarium],0.1 µg/mL
4,CC(C(=O)O)c1ccc(C(=O)c2cccs2)cc1 (stereo not shown) [suprofen],40 µg/mL

# The remaining lines, values ahead:
row,Approx. Solubility in water,Structure (SMILES)
1,58 µg/mL,CNCC(O)c1ccc(OC(=O)C(C)(C)C)c(OC(=O)C(C)(C)C)c1 (stereo not shown) [dipivefrin]
2,8 µg/mL,CN1CCC(=C2c3ccccc3CC(=O)c3sccc32)CC1 [ketotifen]
3,7 µg/mL,CCOC(=O)O[C@]1(C(=O)OCCl)CC[C@H]2[C@@H]3CCC4=CC(=O)C=C[C@]4(C)[C@H]3[C@@H](O)C[C@@]21C [loteprednol etabonate]
4,20 µg/mL,NC(=O)Cc1cccc(C(=O)c2ccccc2)c1N [nepafenac]
5,8 µg/mL,CC(C)OC(=O)CCC/C=C\C[C@@H]1[C@@H](/C=C/[C@@H](O)COc2cccc(C(F)(F)F)c2)[C@H](O)C[C@@H]1O [travoprost]
